Values of other authors, collected in patent US7998503B2, “Form of administration for controlling primary headaches” (LTS Lohmann Therapie-Systeme AG, priority 2003, dated 2011).

Conditions: nasally administered, literature report

For `CCN(CC)CC(=O)Nc1c(C)cccc1C` [lidocaine], which “effect on migraine pain after nasal administration” value (e.g. sprays) is on record?
Its value is “fast decline in migraine pain”.

And the “renewed appearance of the pain after administration” value (shortly after administration)?
Its value is “recurrence, meaning renewed appearance of the pain, was found shortly after administration”.
